What was measured:
CD20 protein = test: Total cellular CD20 protein level by Western blotting in RAJI-CD20high cells; assay type: cell-based, human; conditions: 5-30 μM, 48 hours
Description: Control cells or cells incubated with 10 μM lovastatin for 48 hours, washed twice with PBS, were pelleted and lysed with radioimmunoprecipitation assay (RIPA) buffer containing Tris base 50 mM, NaCl 150 mM, NP-40 1%, sodium deoxycholate 0.25% and EDTA 1 mM supplemented with Complete® protease inhibitor cocktail tablets (Roche Diagnostics, Mannheim, Germany). Protein concentration was measured using Bio-Rad Protein Assay (BioRad, Hercules, Calif., USA). Equal amounts of whole cell proteins were separated on 12.5% SDS-polyacrylamide gel, transferred onto Protran® nitrocellulose membranes (Schleicher and Schuell BioScience Inc., Keene, N.H.), blocked with TBST (Tris buffered saline (pH 7.4) and 0.05% Tween 20) supplemented with 5% nonfat milk and 5% FBS. The following mAb (at 1:1000 dilution) were used for the overnight incubation: anti-CD20 (NCL-CD20-L26, Novocastra Laboratories Ltd, UK), anti-ICAM-1 (Santa Cruz, Santa Cruz, Calif.). After extensive washing with TBST, the membranes were incubated for 45 minutes with peroxidase conjugated ImmunoPure Goat Anti-Mouse IgG [F(ab′)2] (Jackson ImmunoResearch Laboratories Inc, Pa.). The chemiluminescence reaction for horseradish peroxidase was developed using SuperSignal WestPico Trail Kit® (Pierce, Rockford, Ill.) on a standard x-ray film. […]

[1] = test system: cell surface proteins on RAJI cells; test: FACS binding of mAbs to cell surface proteins on RAJI cells; assay type: cell-based, human; conditions: 10 μM lovastatin
Description: B cells (either non-treated cells, cholesterol-depleted cells via MβCD or lovastatin, or cholesterol-reconstituted cells) were characterized for quantitative surface expression of the B cell markers CD19, CD20, and CD21, the T-cell marker CD3, complement regulatory proteins CD55 and CD59, and HLA-DR and CD81 by direct immunofluorescence. […] After washing twice with FACS buffer (PBS, 0.1% Bovine Serum Albumine, 0.02% Sodium Azide), the cells were analyzed on a flow cytometer.

[2] = test system: CD20 in the plasma membrane; test: CD20 localization in RAJI-CD20high cells (immunofluorescence, surface biotinylation); assay type: cell-based, human
Description: To examine localization of CD20 in RAJI-CD20high cells a double immunofluorescence staining with anti-CD20 mAb directed against an extracellular conformational epitope of CD20, and, after cell permeabilization, with a mAb against a linear epitope in the cytosolic tail of this molecule was performed. Control and lovastatin-pretreated RAJI-CD20high cells were stained in suspension at a density of 5×10^5/ml with FITC-conjugated B9E9 (1:10 in PBS, Immunotech Coulter Company, France) for 30 minutes at room temperature. After washing in PBS (three times), 200 μl of the cell suspension was spun onto a Cytospin slide. The slides were air-dried, acetone-fixed for 15 minutes at room temperature, washed three times with PBS, incubated with anti-CD20 mAb (Novocastra) (1:100 in PBS with 5% normal donkey serum (Jackson)) for 60 minutes at room temperature. The slides were washed three times in PBS and incubated with donkey anti-mouse Alexa555 conjugated antibody (Molecular Probes, CA) (1:200 for 30 minutes at room temperature). The slides were washed, mounted in Vectashield (Vector Laboratories, CA.) and examined by fluorescence microscopy (Leica TCS SP2). […] After five washes, gel-bound complexes were boiled in 2× Laemmli sample buffer and analyzed for CD20 by Western blotting using anti-CD20 mAb (NCL-CD20-L26, Novocastra) as described in Example 8.

CD20 mRNA = CD20 mRNA level by RT-PCR in RAJI-CD20high cells; assay type: cell-based, human; conditions: 10 μM, time course over 48 hours
Description: To analyze whether lovastatin treatment would influence CD20 expression mRNA expression of the target was determined. RAJI-CD20high cells were incubated with either diluent (control) or 10 μM of lovastatin for different time periods (1-48 hours). Cells were washed twice with PBS, pelleted and treated with 1 ml of TRIzol Reagent (Invitrogen) to extract total RNA according to the manufacturer's protocol. RNA concentration was measured with Eppendorf Biophotometer (Eppendorf, Hamburg, Germany). The first strand cDNA synthesis containing 1 μg of total RNA was primed with oligo(dT) using Omniscript RT Kit (Qiagen, Chatsworth, Calif.). Primers used for CD20 PCR amplification were: forward-5′ […]3′ and reverse-5′ […]3′. The cycling conditions in the Mastercycler personal (Eppendorf) consisted of a first step of 94° C. denaturation for 10 minutes, followed by 35 cycles of annealing at 54° C. for 60 sec, extension at 75° C. for 90 sec, and denaturation at 94° C. for 30 sec, with a final elongation step at 75° C. for 10 minutes using HotStart Taq DNA Polymerase (Qiagen). Amplification products were analyzed by 1.5% agarose gel electrophoresis.

RAJI-CD20high cells = test: Rituximab-mediated CDC of RAJI-CD20high cells, MTT assay; assay type: cell-based, human; conditions: for rituximab-mediated CDC after pre-incubation: Berberine chloride 24 hours or Fillipin III 30 minutes, 10 μg/ml rituximab, 10% serum
Excerpt: Statins are competitive inhibitors of 3-hydroxy-3-methylglutaryl-coenzyme A reductase (HMG-CoAR). HMG-CoAR is a rate-limiting enzyme of the mevalonate pathway essential for the synthesis of isoprenoid compounds including cholesterol (McTaggart S J (2006) Isoprenylated proteins. Cell Mol Life Sci 63:255-267). By inhibiting HMG-CoAR, statins can lower the cholesterol blood level and extract cholesterol from the cell membrane. To determine the effect of statin-mediated cholesterol depletion on immunotherapy RAJI-CD20high cells were cultured with a concentration range of lovastatin or diluent for 48 hours.
Cell viability was measured in a MTT assay in which 3-(4,5-dimethylthiazol-2-yl)-2,5-diphenyltetrazolium bromide (MTT) solution (5 mg/ml, Roche, Diagnostics, Almere, The Netherlands) was added to each well (flat-bottom microtiter plates; Nunc, Rochester, N.Y.). The reaction was stopped after 4 hours of incubation at 37° C. by the addition of 100 μl of 20% SDS (Roche Diagnostics, Almere, The Netherlands). After overnight incubation at 37° C. the absorbance of the samples was measured at 550-525 nm using an Elisa reader (EL808x, Biotek instruments, Highland park, Vt., USA). Cytotoxicity was expressed as a relative viability of the rituximab-mediated CDC of lovastatin-treated cells compared to cells incubated with medium only and was calculated as follows: relative viability=[(Ae−Ab)/(Ac−Ab)]*100, where Ab is the background absorbance, Ae is experimental absorbance of the lysed cells and Ac is the absorbance of untreated cells. The viability was expressed as percentage survival in comparison to non-cholesterol depleted cells (control).
RAJI-CD20high cells were incubated with diluents (control) or a concentration range of either Fillipin III for 30 minutes or Berberine chloride for 24 hours. […] The cytotoxic effects were measured in a MTT assay. […] After overnight incubation at 37° C. the absorbance of the samples was measured at 550-525 nm using an Elisa reader (EL808x, Biotek instruments, Highland park, Vt., USA). […]

[3] = test system: CD20 on RAJI-CD20high cells; test: Flow cytometry binding of FITC-conjugated B9E9 to RAJI-CD20high cells; parameters: species or system human; conditions: Berberine chloride 24 hours; Fillipin III 30 minutes
Description: To deplete cholesterol from the cell membrane, methyl-beta-cyclodextrin (MβCD, Sigma, Zwijndrecht, The Netherlands) was added in varying concentrations to Daudi cells and RAJI-CD20high cells and incubated for 30 minutes at 37° C. under gentle shaking conditions. After incubation the cells were washed twice in PBS and resuspended in test medium to a concentration of 2×10^6 viable cells/ml. MβCD-treated Daudi cells (1×10^5) were incubated with a saturating concentration of FITC-conjugated human anti-CD20 mAb 2F2 or the anti-CD20 mAb B9E9 (Beckman Coulter Inc., Fullerton, Calif.) for 30 minutes at 4° C. After washing twice with FACS buffer (PBS, 0.1% Bovine Serum Albumine, 0.02% Sodium Azide), cells were analyzed on a FACS Calibur (Becton Dickinson, Breda, The Netherlands). […] Binding is expressed as mean fluorescence intensity. […]
To determine the effect of adding cholesterol on CD20 mAb binding, all cell lines (1×10^5) were incubated with a saturating concentration of B9E9 for 30 minutes at 4° C. After washing twice with FACS buffer (PBS, 0.1% Bovine Serum Albumine, 0.02% Sodium Azide), the cells were analyzed on a FACS Calibur (Becton Dickinson, Breda, The Netherlands).
Cholesterol was depleted from the cell membrane of various B cells using varying concentrations of lovastatin (as described in Example 3) and CD20 mAb binding was determined. […]

[4] = Cholesterol blood level of hypercholesterolemic patients treated with atorvastatin; assay type: in vivo, human; conditions: day 3 vs day 0, single dose 80 mg, five patients
Description: Further, the influence of cholesterol depletion in freshly isolated B cells of hypercholesterolemic patients treated with atorvastatin was studied. A small exploratory clinical trial was performed in which hypercholesterolemic patients (n=5) were treated with a single dose of 80 mg atorvastatin (taken in the evening) in order to reduce their cholesterol blood level and determine the effect on CD20 mAb binding on isolated B cells using flow cytometry. Approval of the study was obtained from the ethics review board of the Warsaw University Medical Center. Informed consent was provided according to the Declaration of Helsinki. […]
The cholesterol blood level was measured using automated dry chemistry system (Vitroz 250 System Chemistry (Ortho-Clinical Diagnostics, Johnson&Johnson, Piscataway, N.J.). A starting cholesterol blood level of […] was required for patients to enroll in the clinical trial. At time of recruitment, patient I.D.#4 presented with a cholesterol blood concentration […], and as such was considered hypercholesterolemic. At time of recruitment the blood cholesterol level of patient I.D.#5 turned out to be below this cut off value, and thus it can be argued whether this patient should be considered hypercholesterolemic. […] Cholesterol blood levels were subsequently measured on day 0 (pretreatment) and day 3 after treatment. […]

## CC[C@H](C)C(=O)O[C@H]1C[C@@H](C)C=C2C=C[C@H](C)[C@H](CC[C@@H]3C[C@@H](O)CC(=O)O3)[C@H]21 [lovastatin]
CD20 protein
  total cellular CD20 protein level: did not influence
[1]
  decrease of mAb binding of CD21: not
  mAb binding of CD19 and CD20: clearly decreased
[2]; 48-hour pre-treatment, confocal immunofluorescence
  binding of mAb directed to the extracellular epitope of CD20: nearly completely abrogated binding
[2]; treated cells compared with controls
  CD20 detectable among biotinylated surface proteins: comparable amounts
CD20 mRNA
  mRNA level for CD20: remained constant
RAJI-CD20high cells; lovastatin concentration range 48 hours, 10% complement active serum
  protection from rituximab-induced CDC (cell viability): concentration-dependent protection

## COc1ccc2cc3[n+](cc2c1OC)CCc1cc2c(cc1-3)OCO2 [Berberine chloride]
[3]
  binding of B9E9 to cells treated with cholesterol-modulating drug: impaired binding
RAJI-CD20high cells
  rituximab-mediated CDC after pre-incubation: significantly abrogated

## Fillipin III
[3]
  binding of B9E9 to cells treated with cholesterol-modulating drug: not observed
RAJI-CD20high cells
  rituximab-mediated CDC after pre-incubation: remained sensitive

## CC(C)c1c(C(=O)Nc2ccccc2)c(-c2ccccc2)c(-c2ccc(F)cc2)n1CC[C@@H](O)C[C@@H](O)CC(=O)O [atorvastatin]
[4]
  reduction of average cholesterol blood concentration: 17%

From patent publication US20110091473A1, “NOVEL ANTIBODY THERAPIES” (GENMAB A/S, priority 2007, published 2011)
